# Results reported in publication PMC10296061, “Inhibition of the Mitochondrial Carnitine/Acylcarnitine Carrier by Itaconate through Irreversible Binding to Cysteine 136: Possible Pathophysiological Implications” (Biomolecules, 2023).
# Numbering of substitutions follows the chain as printed.
# What was measured:
# Format in all cases: biochemical
# [1] = target: T1, CAC C23V/C58V/C89S/C136V/C155V/C283S (C-less) mutant (Rattus norvegicus, UniProt P97521, C136V/C155V/C23V/C283S/C58V/C89S); assay: Transport assay in proteoliposomes, C-less CAC mutant
# T1 construct: made in house; host or cells: E. coli C0214
# T1 sequence (P97521 1-301 C23V/C58V/C89S/C136V/C155V/C283S): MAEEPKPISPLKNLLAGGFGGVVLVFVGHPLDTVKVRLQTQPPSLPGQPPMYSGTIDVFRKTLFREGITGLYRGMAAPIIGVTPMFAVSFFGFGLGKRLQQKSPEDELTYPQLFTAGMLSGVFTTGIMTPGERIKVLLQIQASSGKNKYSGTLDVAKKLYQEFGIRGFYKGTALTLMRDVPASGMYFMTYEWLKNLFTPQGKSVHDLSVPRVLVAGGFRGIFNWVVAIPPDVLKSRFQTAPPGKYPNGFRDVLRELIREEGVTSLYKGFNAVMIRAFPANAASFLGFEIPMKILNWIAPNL
# Description: (§1) As previously described, the pMW7-WTratCAC recombinant plasmid was used for over-expressing the rat CAC [22]. The overlap extension method was used to introduce the mutations; in the main time, NdeI and HindIII restriction sites were also added using appropriate primers. The PCR products were purified by the QIAEX II Gel Extraction Kit (QIAGEN) and digested with NdeI and HindIII and then ligated into the pMW7. All mutations were verified by DNA sequencing. The resulting plasmid constructs were transformed into E. coli C0214. Overexpression, inclusion body fraction preparation, and purification of the CAC proteins were performed as previously described.
# As previously described, recombinant CAC (WT and mutants) and ORC1 proteins were used for proteoliposome formation. For experiments with native CAC, ORC1, or ANT proteins, rat liver mitochondria, or HeLa cell mitochondria, the latter for the CAC alone, were first purified using the standard procedure of cell disruption and differential centrifugation. Then proteins were extracted using 3% Triton X-100 and reconstituted as described for the recombinant proteins. The concentration of intraliposomal carnitine and ornithine was 15 mM and 30 mM, respectively, in all samples.
# To test the transport activity of the CAC, 550 μL of proteoliposomes was passed through a Sephadex G-75 column to remove the external substrate. Six hundred μL of the turbid eluate was collected, divided into samples of 100 μL each, and used for transport measurement by the inhibitor-stop method. Transport was started by adding 0.1 mM [^3H]carnitine ([^3H]ornitine or [^3H]ATP) to proteoliposome samples and stopped with 1.5 mM NEM (N-ethylmaleimide) at the indicated time interval. In the control samples, NEM was added with the labeled substrate at time zero. Transport rates were measured in 10 min, i.e., within the initial linear range of the time course, at 25 °C. After terminating the transport reaction, the external substrate was removed by chromatography on the Sephadex G-75 column, and the intraliposomal radioactivity was measured. The experimental values were corrected by subtracting the controls.
# Figure 3 Identification of residue responsible for itaconate inhibition. (a) Dose–response analysis of the Cys mutants of CAC for the inhibition by itaconate was performed. Transport activity of the WT (○), C136A (●), C155A (Δ), C23V/C58V/C89S/C155V/C283S (▲), and C23V/C58V/C89S/C136V/C155V/C283S (□) was measured by adding 0.1 mM [^3H]carnitine after treatment by itaconate at the indicated concentrations. Transport activity (µmol/10 min/mg) is: WT 1.80 ± 0.31; C136A 0.91 ± 0.10; C155A 1.00 ± 0.17; C23V/C58V/C89S/C155V/C283S 1.02 ± 0.159; C23V/C58V/C89S/C136V/C155V/C283S 0.71 ± 0.22. (b) Dose–response analysis of proteoliposomes reconstituted native (○) or recombinant ORC (●) incubated with itaconate at the indicated concentrations. Transport activity was measured by adding 0.1 [^3H]ornithine, respectively, as described in Materials and Methods. The data are expressed as a percent of the controls (no addition of itaconate) and are means ± SD from three independent experiments.
# Figure 4 Lysine contribution to CAC inhibition by itaconate. Protection of PLP (pyridoxal phosphate) from inhibition by itaconate on C-less CAC was carried out. C-less mutant (i.e., C23V/C58V/C89S/C136V/C155V/C283S) was reconstituted into proteoliposomes and treated or not treated with 30 mM PLP for 10 min (“Contr” or “PLP” column, respectively). […]
# [2] = target: T2, CAC C23V/C58V/C89S/C155V/C283S mutant (Rattus norvegicus, UniProt P97521, C155V/C23V/C283S/C58V/C89S); assay: Transport assay in proteoliposomes, CAC mutant containing the sole C136; conditions: read-out: IC50 for itaconate inhibition
# T2 construct: made in house; host or cells: E. coli C0214
# T2 sequence (P97521 1-301 C23V/C58V/C89S/C155V/C283S): T1 sequence (P97521 1-301 C23V/C58V/C89S/C136V/C155V/C283S) with V136C
# Description: as §1, with “described. […]” for “described.”
# (§2) To test the transport activity of the CAC, 550 μL of proteoliposomes was passed through a Sephadex G-75 column to remove the external substrate. […] Transport rates were measured in 10 min, i.e., within the initial linear range of the time course, at 25 °C. After terminating the transport reaction, the external substrate was removed by chromatography on the Sephadex G-75 column, and the intraliposomal radioactivity was measured. […]
# Figure 3 Identification of residue responsible for itaconate inhibition. […] Transport activity of the WT (○), C136A (●), C155A (Δ), C23V/C58V/C89S/C155V/C283S (▲), and C23V/C58V/C89S/C136V/C155V/C283S (□) was measured by adding 0.1 mM [^3H]carnitine after treatment by itaconate at the indicated concentrations. […]
# CAC K135A mutant = target: T3, CAC K135A mutant (Rattus norvegicus, UniProt P97521, K135A); assay: Transport assay in proteoliposomes, CAC mutant K135A; conditions: read-out: IC50 for itaconate inhibition
# T3 construct: made in house; host or cells: E. coli C0214
# T3 sequence (P97521 1-301 K135A): T1 sequence (P97521 1-301 C23V/C58V/C89S/C136V/C155V/C283S) with V23C, V58C, S89C, K135A, V136C, V155C, S283C
# Description: as §1, with “described. […]” for “described.”
# as §2
# Figure 9 Dose–response analysis of inhibition by itaconate of WT protein (○) and the K135A (●) mutant was performed by measuring the transport activity with or without itaconate treatment. […] The data are expressed as a percent of the own controls and are means ± SD from three independent experiments.
smiles,measurement,setting,value
C=C(CC(=O)O)C(=O)O [itaconate],effect on PLP pretreated (protected) C-less CAC,"[1]; 15 mM itaconate added to 30 mM PLP pretreated protein, reactants removed by G-75",inefficacy
same,effect on C-less CAC transport,"[1]; 15 mM itaconate, no PLP preincubation",inhibited
same,IC50,"[1]; C-less mutant, read-out: IC50 for itaconate inhibition",15 ± 2.4 mM
same,IC50,[2],4 ± 0.14 mM
same,IC50,CAC K135A mutant,16 ± 2.6 mM
